The values that follow come from BindingDB's records for patent US20250387388 (Medinno Pharmaceutical Technology (Zhuhai) Co., 2025).

The structures appear in SMILES notation.

For experiment [1], the target named is BDNF/NT-3 growth factors receptor (Homo sapiens, UniProt Q16620). Description: Inhibitory Activity of Compounds on TRKA, TRKB and TRKC.
Experiment [2] has as its target High affinity nerve growth factor receptor (Homo sapiens, UniProt P04629). The description is as above.
For experiment [3], the target named is NT-3 growth factor receptor (Homo sapiens, UniProt Q16288). The experiment is described as above.
In experiment [4] the target is Proto-oncogene tyrosine-protein kinase receptor Ret (Homo sapiens, UniProt P07949). The experiment can be described thus: Inhibitory Activity of Compounds on RET Kinase.
Proto-oncogene tyrosine-protein kinase receptor Ret, sequence (P07949 whole entry): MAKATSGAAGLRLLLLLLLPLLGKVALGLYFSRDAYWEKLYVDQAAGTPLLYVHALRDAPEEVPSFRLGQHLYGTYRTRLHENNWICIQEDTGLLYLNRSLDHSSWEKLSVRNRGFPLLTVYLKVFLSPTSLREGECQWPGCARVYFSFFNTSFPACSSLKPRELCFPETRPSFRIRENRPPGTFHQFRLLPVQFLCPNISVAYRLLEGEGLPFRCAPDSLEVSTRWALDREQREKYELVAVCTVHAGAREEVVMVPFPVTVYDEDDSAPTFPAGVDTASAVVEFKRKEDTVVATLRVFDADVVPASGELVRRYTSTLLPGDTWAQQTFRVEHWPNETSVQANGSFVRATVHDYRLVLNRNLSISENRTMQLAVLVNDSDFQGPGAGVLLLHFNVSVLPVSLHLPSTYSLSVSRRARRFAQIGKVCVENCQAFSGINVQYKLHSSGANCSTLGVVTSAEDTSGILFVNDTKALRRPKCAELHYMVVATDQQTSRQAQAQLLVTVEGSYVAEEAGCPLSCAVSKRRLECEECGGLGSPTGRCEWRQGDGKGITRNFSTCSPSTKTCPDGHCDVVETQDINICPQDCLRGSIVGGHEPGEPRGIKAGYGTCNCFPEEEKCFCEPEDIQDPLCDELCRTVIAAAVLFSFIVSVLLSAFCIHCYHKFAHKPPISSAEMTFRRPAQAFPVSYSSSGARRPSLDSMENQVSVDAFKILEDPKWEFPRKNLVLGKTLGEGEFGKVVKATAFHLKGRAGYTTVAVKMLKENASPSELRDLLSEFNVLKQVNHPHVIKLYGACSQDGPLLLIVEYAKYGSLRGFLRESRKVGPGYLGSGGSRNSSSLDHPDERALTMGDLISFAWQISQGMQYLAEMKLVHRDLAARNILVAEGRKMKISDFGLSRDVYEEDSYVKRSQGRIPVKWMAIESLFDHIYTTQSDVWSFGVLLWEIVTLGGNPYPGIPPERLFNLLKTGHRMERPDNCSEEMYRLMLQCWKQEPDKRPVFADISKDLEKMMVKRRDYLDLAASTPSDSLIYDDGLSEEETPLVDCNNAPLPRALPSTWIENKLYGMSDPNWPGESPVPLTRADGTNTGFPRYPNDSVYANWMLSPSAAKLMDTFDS

BDNF/NT-3 growth factors receptor, sequence (Q16620 whole entry): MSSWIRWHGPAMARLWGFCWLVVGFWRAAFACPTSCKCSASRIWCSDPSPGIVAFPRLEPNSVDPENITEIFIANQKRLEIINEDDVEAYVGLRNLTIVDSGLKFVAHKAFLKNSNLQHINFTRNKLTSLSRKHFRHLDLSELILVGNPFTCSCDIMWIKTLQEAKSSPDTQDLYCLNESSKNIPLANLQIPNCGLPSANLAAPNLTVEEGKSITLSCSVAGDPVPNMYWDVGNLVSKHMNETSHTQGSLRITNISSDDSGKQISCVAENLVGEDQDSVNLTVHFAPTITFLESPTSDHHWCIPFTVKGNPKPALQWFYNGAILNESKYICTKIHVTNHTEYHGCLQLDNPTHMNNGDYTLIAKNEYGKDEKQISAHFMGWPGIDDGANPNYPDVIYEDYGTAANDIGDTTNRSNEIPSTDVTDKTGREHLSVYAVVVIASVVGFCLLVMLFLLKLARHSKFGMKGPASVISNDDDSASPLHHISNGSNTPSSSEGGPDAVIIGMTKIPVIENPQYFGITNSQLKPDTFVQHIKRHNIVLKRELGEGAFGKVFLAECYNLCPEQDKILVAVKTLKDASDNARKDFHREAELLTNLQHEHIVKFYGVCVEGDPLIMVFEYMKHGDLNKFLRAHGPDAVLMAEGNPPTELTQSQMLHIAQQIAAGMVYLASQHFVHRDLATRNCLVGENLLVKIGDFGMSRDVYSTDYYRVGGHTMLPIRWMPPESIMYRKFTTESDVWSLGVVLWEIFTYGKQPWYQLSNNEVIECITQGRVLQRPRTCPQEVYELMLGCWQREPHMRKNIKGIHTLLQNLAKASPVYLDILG
High affinity nerve growth factor receptor, sequence (P04629 whole entry): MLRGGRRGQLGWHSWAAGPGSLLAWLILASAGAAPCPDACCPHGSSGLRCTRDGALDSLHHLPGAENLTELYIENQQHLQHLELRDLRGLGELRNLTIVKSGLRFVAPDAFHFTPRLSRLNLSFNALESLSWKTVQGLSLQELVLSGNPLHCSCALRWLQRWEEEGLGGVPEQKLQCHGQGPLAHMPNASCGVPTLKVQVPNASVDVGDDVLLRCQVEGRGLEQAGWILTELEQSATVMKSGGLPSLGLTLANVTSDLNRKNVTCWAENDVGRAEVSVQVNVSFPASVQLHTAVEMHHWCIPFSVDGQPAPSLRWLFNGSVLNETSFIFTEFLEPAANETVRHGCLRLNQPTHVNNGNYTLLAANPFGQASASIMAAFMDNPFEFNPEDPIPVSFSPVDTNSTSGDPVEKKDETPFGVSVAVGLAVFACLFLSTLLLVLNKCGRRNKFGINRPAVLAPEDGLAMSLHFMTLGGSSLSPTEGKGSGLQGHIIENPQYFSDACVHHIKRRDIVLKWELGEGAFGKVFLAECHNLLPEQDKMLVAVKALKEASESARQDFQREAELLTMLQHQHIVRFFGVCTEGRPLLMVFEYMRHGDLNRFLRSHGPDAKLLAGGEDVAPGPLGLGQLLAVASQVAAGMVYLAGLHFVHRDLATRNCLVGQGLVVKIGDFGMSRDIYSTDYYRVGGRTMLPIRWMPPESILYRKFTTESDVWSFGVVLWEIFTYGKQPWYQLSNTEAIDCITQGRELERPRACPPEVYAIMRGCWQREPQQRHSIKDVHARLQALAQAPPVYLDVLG
NT-3 growth factor receptor, sequence (Q16288 whole entry): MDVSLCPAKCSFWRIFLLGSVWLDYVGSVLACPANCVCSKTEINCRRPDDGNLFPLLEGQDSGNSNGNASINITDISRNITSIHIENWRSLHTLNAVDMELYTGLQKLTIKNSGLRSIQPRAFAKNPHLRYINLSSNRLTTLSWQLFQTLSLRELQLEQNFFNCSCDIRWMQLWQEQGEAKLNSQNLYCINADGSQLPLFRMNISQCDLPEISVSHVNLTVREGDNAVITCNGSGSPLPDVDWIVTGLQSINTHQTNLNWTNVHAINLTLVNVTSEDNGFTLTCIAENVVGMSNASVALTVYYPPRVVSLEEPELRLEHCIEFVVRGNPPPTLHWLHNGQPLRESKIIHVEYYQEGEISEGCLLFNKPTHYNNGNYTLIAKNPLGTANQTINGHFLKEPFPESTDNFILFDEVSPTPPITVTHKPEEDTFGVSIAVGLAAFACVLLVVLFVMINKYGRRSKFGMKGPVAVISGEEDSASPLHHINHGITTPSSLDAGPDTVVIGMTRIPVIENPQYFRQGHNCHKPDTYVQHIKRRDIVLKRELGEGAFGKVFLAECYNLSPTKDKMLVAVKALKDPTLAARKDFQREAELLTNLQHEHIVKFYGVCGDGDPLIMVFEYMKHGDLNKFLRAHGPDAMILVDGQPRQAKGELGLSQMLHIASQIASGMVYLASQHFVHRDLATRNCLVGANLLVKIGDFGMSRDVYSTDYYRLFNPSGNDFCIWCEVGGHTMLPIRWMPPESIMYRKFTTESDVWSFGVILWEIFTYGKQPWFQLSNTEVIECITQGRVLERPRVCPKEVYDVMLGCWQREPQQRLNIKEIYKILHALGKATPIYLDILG

As usually defined, the IC50 is the concentration at which inhibition is half-maximal. Regarding `CCc1cc(O)c(F)cc1-c1ccc2c(-c3nc4c([nH]3)CN(c3nc(N5CCOCC5)cnc3C(=O)c3ncc(N5CCOCC5)nc3N3Cc5nc(-c6n[nH]c7cc(-c8cc(F)c(O)cc8CC)ccc67)[nH]c5C3)C4)n[nH]c2c1` [US20250387388, Compound MDI-201], the IC50 in experiment [1] was 6.14 nM; in experiment [2], 5.76 nM; in experiment [3] it was 2.2 nM.

For the molecule `CCc1cc(O)c(F)cc1-c1ccc2c(-c3nc4c([nH]3)CN(C3CCCN3C(=O)N3CCCC3N3Cc5nc(-c6n[nH]c7cc(-c8cc(F)c(O)cc8CC)ccc67)[nH]c5C3)C4)n[nH]c2c1` (stereo not drawn) [US20250387388, Compound MDI-231], the IC50 was 5.86 nM in experiment [1], 2.82 nM in experiment [2] and 1.49 nM in experiment [3].

For `CCc1cc(O)c(F)cc1-c1ccc2c(-c3nc4c([nH]3)CN(C3CCCCN3C(=O)N3CCCCC3N3Cc5nc(-c6n[nH]c7cc(-c8cc(F)c(O)cc8CC)ccc67)[nH]c5C3)C4)n[nH]c2c1` (stereo not drawn) [US20250387388, Compound MDI-233], the IC50 turned out to be 30.4 nM in experiment [1], 9.01 nM in experiment [2] and 6.32 nM in experiment [3].

In the case of `CCc1cc(O)c(F)cc1-c1ccc2c(-c3nc4c([nH]3)CN(C3CN(C(=O)N5CCOC(N6Cc7nc(-c8n[nH]c9cc(-c%10cc(F)c(O)cc%10CC)ccc89)[nH]c7C6)C5)CCO3)C4)n[nH]c2c1` (stereo not drawn) [US20250387388, Compound MDI-234], the figures for the IC50 in experiment [1], in experiment [2] and in experiment [3] were 1.27 nM, 1.07 nM and 0.65 nM, respectively.

For the molecule `CCc1cc(O)c(F)cc1-c1ccc2c(-c3nc4c([nH]3)CN(C3CN(C)CCN3C(=O)N3CCN(C)CC3N3Cc5nc(-c6n[nH]c7cc(-c8cc(F)c(O)cc8CC)ccc67)[nH]c5C3)C4)n[nH]c2c1` (stereo not drawn) [US20250387388, Compound MDI-235], the IC50 worked out at 1.39 nM in experiment [1], 0.57 nM in experiment [2], 0.27 nM in experiment [3] and 0.1 nM in experiment [4].

With `CCc1cc(O)c(F)cc1-c1ccc2c(-c3nc4c([nH]3)CN(C3CN(CC)CCN3C(=O)N3CCN(CC)CC3N3Cc5nc(-c6n[nH]c7cc(-c8cc(F)c(O)cc8CC)ccc67)[nH]c5C3)C4)n[nH]c2c1` (stereo not drawn) [US20250387388, Compound MDI-236], the IC50 in experiment [1] is 1.06 nM; in experiment [2], 0.23 nM; in experiment [3], 0.2 nM.

Take `CCc1cc(O)c(F)cc1-c1ccc2c(-c3nc4c([nH]3)CN(C3CC(O)CCN3C(=O)N3CCC(O)CC3N3Cc5nc(-c6n[nH]c7cc(-c8cc(F)c(O)cc8CC)ccc67)[nH]c5C3)C4)n[nH]c2c1` (stereo not drawn) [US20250387388, Compound MDI-245]: the IC50 in experiment [1] was 3.37 nM; in experiment [2], 0.83 nM; in experiment [3] it was 0.57 nM; in experiment [4] it was 0.99 nM.
